{"source": "paper PMC11992225", "about": "“Antibacterial compounds against non-growing and intracellular bacteria” (npj Antimicrobials and Resistance, 2025)", "key": {"[1]": {"system": "non-growing P. aeruginosa DSM1117", "assay": "Dilution-regrowth assay (OD600, start-growth-time) on stationary-phase P. aeruginosa", "assay_type": "cell-based, Pseudomonas aeruginosa", "details": "for Regrowth, OD600 at 6h or 8h after dilution into drug-free medium: average; for EC50: Pseudomonas aeruginosa", "procedure": "To determine the spectrum of activity of the compounds that were effective against non-growing UPEC, we further assessed their efficacy against the well-characterized Gram-negative and Gram-positive reference strains P. aeruginosa DSM1117 and S. aureus DSM2569, respectively. The cultures were grown and treated for 24 h in 1:4 CA-MHB (pH 7.4). […].\nFor better characterization of the compounds causing the strongest regrowth delay, we performed the regrowth step of the dilution-regrowth experiments on a plate reader, measuring the OD600 at 20-min intervals for over 20 h instead of using an endpoint measurement. This approach allowed us to capture the time when cultures reached a threshold optical density (start-growth-time, SGT[15]).\nOvernight cultures of UPEC, P. aeruginosa and S. aureus were grown in test tubes containing 3 ml of LB broth (~16 h), then diluted 1:100 into either 1:4 diluted CA-MHB medium buffered with 40 mM HEPES (pH 7.4) or, in case of UPEC, into LPM medium[25] supplemented with 49 µM MgCl2 and buffered with 30 mM MES (pH 5.5). The cultures were incubated for 24 h in non-baffled Erlenmeyer flasks at 37 °C with shaking at 200 rpm.\nFor P. aeruginosa and S. aureus, dose–response analysis was conducted in 96-well plates with a 200 μl assay volume, following the procedure used for screening assay validation experiments. Aliquots of the 39 compounds active against non-growing UPEC were obtained from SelleckChem and MedChem Express. Stock solutions were prepared and stored according to the manufacturers’ instructions, then diluted in 10% DMSO before use. Cultures were incubated for 24 h in 1:4 diluted CA-MHB medium under the same conditions used for UPEC cultivation. In preliminary experiments, each compound was tested at a concentration of 20 μM in the dilution-regrowth assay with 4 technical replicates. Regrowth was monitored using a microplate reader at 37 °C with continuous shaking, and OD600 was recorded every 20 min. The time at which OD600 exceeded the threshold of 0.12 was recorded as the Start_Growth-Time.\nThe statistical analysis of all data, as well as EC50 and IC50 determination, was conducted using GraphPad Prism 10.2.3. Statistical significance of the drug effects was assessed using a one-way ANOVA followed by Dunnett’s test, comparing each treatment to the drug-free control. Statistical significance of the differences in chemical characteristics between the hit compounds and the Prestwick library was assessed using a Mann–Whitney test. Statistical significance was set at P ≤ 0.05. A five-parameter logistic equation was used for asymmetric sigmoidal curve fitting and for EC50 and IC50 determination. The Venn diagram in Fig. 1F was prepared using BioVenn web application. Characteristics of the chemical and physical properties of Prestwick library compounds were obtained from Supplementary Table S1 from reference. Characteristics of the hit compounds not included in the Prestwick library were retrieved from the PubChem database."}, "[2]": {"system": "non-growing UPEC CFT073", "assay": "Dose-dependent killing analysis (CFU spot-plating) of stationary-phase UPEC", "assay_type": "cell-based, Escherichia coli", "details": "for log10(CFU/ml) after treatment / killing, average Δlog10(CFU/ml) / log10(CFU/ml) of treated nongrowing bacteria (single replicates): E. coli in 1:4 CA-MHB (pH 7.4); for log10(CFU/ml) after treatment: individual replicates; for log10(CFU/ml) of treated nongrowing bacteria (single replicates): before treatment 8.977", "how_it_was_run": "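Non-growing (stationary-phase) UPEC CFT073 treated with compounds in 96-well format at 200 μl, then 10-fold serially diluted in PBS and 10 μl spots plated on LB agar. Plates incubated overnight at 37 °C; colonies counted at lowest resolvable dilution to give CFU. Three biological replicates.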"}, "[3]": {"system": "non-growing S. aureus DSM2569", "assay": "Dose-dependent killing analysis (CFU spot-plating) of stationary-phase S. aureus", "assay_type": "cell-based, Staphylococcus aureus", "details": "for average Δlog10(CFU/ml) (killing): S. aureus, vs 9,097 before treatment", "how_it_was_run": "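Stationary-phase S. aureus DSM2569 was grown and treated for 24 h in 1:4 CA-MHB at pH 7.4. Treated samples were serially diluted 10-fold in PBS and spot-plated on LB agar, which was incubated overnight at 37 °C. Survivors were counted as CFU over three biological replicates.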"}, "[4]": {"system": "non-growing S. aureus DSM2569", "assay": "Dilution-regrowth assay (OD600, start-growth-time) on stationary-phase S. aureus", "assay_type": "cell-based, Staphylococcus aureus", "details": "for EC50: Staphylococcus aureus", "how_it_was_run": "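Stationary-phase S. aureus cultures were grown and exposed to compound for 24 h in 1:4 CA-MHB (pH 7.4) at 37 °C in 96-well plates with 200 μl volume. After dilution into drug-free medium, regrowth was tracked in a plate reader at 37 °C with continuous shaking, reading OD600 every 20 min; EC50 came from five-parameter logistic fitting.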"}, "[5]": {"details": "DSM1117, P. aeruginosa, regrowth delay of non-growing bacteria, 1:4 CA-MHB pH 7.4, 24 h treatment, OD600 8 h after dilution, read-out: EC50"}}, "note": "Values joined by “and” are separate entries in the source; they are usually repeats but may differ in a detail not shown here. Identical values can stand only once. Like-named read-outs stand apart in the source and are kept apart here.", "data": [{"compound": "Cc1oc(=O)oc1CN1CCN(c2cc3c(cc2F)c(=O)c(C(=O)O)c2n3C(C)S2)CC1", "note": "(stereo not shown) [Prulifloxacin]", "values": [{"measurement": "Regrowth, OD600 at 6h or 8h after dilution into drug-free medium", "setting": "[1]; P. aeruginosa, concentration 2.5", "result": 0.094}, {"measurement": "Regrowth, OD600 at 6h or 8h after dilution into drug-free medium", "setting": "[1]; P. aeruginosa, concentration 10", "result": 0.095}, {"measurement": "EC50", "setting": "[1]; [5]", "result": 97, "unit": "nM"}, {"measurement": "log10(CFU/ml) after treatment", "setting": "[2]; concentration 1", "result": "9.041 log10(CFU/ml) (2×) and 8.398 log10(CFU/ml)"}, {"measurement": "log10(CFU/ml) after treatment", "setting": "[2]; concentration 2.5", "result": "8.845 log10(CFU/ml) and 8.230 log10(CFU/ml) and 7.903 log10(CFU/ml)"}, {"measurement": "log10(CFU/ml) after treatment", "setting": "[2]; concentration 5", "result": "8.477 log10(CFU/ml) and 7.699 log10(CFU/ml) and 7.176 log10(CFU/ml)"}, {"measurement": "log10(CFU/ml) after treatment", "setting": "[2]; concentration 10", "result": "7.903 log10(CFU/ml) and 7.176 log10(CFU/ml) (2×)"}, {"measurement": "killing, average Δlog10(CFU/ml)", "setting": "[2]; drug concentration 0.25", "result": "0.155 log10(CFU/ml)"}, {"measurement": "log10(CFU/ml) of treated nongrowing bacteria (single replicates)", "setting": "[2]; drug concentration 0.25", "result": "9.322 log10(CFU/ml) and 8.845 log10(CFU/ml) and 8.301 log10(CFU/ml)"}, {"measurement": "killing, average Δlog10(CFU/ml)", "setting": "[2]; drug concentration 0.5", "result": "0.462 log10(CFU/ml)"}, {"measurement": "log10(CFU/ml) of treated nongrowing bacteria (single replicates)", "setting": "[2]; drug concentration 0.5", "result": "8.903 log10(CFU/ml) and 8.301 log10(CFU/ml) and 8.342 log10(CFU/ml)"}]}, {"compound": "C=C[C@]1(C)C[C@@H](OC(=O)CSC(C)(C)CNC(=O)[C@H](N)C(C)C)[C@]2(C)[C@H](C)CC[C@]3(CCC(=O)[C@H]32)[C@@H](C)[C@@H]1O", "note": "[Valnemulin]", "values": [{"measurement": "EC50", "setting": "[1]; [5]", "result": 324, "unit": "nM"}, {"measurement": "bactericidal activity against non-growing UPEC (CFU counting)", "setting": "[2]; 24 h treatment of stationary phase culture", "result": "not bactericidal"}]}, {"compound": "CO[C@@]12[C@H](COC(N)=O)C3=C(C(=O)C(C)=C(N)C3=O)N1C[C@@H]1N[C@@H]12", "note": "[Mitomycin C]", "values": [{"measurement": "reduction of non-growing S. aureus", "setting": "[3]; at 10 µM, 24 h treatment", "result": "below the limit of detection"}, {"measurement": "Regrowth, OD600 at 6h or 8h after dilution into drug-free medium (average)", "setting": "[1]; P. aeruginosa, drug concentration 0.1", "result": 0.203}, {"measurement": "Regrowth, OD600 at 6h or 8h after dilution into drug-free medium (average)", "setting": "[1]; P. aeruginosa, drug concentration 0.5", "result": 0.116}, {"measurement": "Regrowth, OD600 at 6h or 8h after dilution into drug-free medium (average)", "setting": "[1]; P. aeruginosa, drug concentration 2.5", "result": 0.094}, {"measurement": "Regrowth, OD600 at 6h or 8h after dilution into drug-free medium (average)", "setting": "[1]; P. aeruginosa, drug concentration 10", "result": 0.095}, {"measurement": "EC50", "setting": "[1]; DSM1117, pH 7.4", "result": 28, "unit": "nM"}, {"measurement": "Regrowth, OD600 at 6h or 8h after dilution into drug-free medium (average)", "setting": "[4]; S. aureus, drug concentration 0.1", "result": 0.433}, {"measurement": "Regrowth, OD600 at 6h or 8h after dilution into drug-free medium (average)", "setting": "[4]; S. aureus, drug concentration 0.5", "result": 0.163}, {"measurement": "Regrowth, OD600 at 6h or 8h after dilution into drug-free medium (average)", "setting": "[4]; S. aureus, drug concentration 2.5", "result": 0.087}, {"measurement": "Regrowth, OD600 at 6h or 8h after dilution into drug-free medium (average)", "setting": "[4]; S. aureus, drug concentration 10", "result": 0.106}, {"measurement": "EC50", "setting": "[4]; DSM2569, pH 7.4", "result": 129, "unit": "nM"}]}, {"compound": "NC1CCN(c2c(F)cc3c(=O)c(C(=O)O)cn(C4CC4)c3c2Cl)C1", "note": "(stereo not shown) [Clinafloxacin]", "values": [{"measurement": "average Δlog10(CFU/ml) (killing)", "setting": "[3]; drug conc 0.1", "result": "0.189 log10(CFU/ml)"}, {"measurement": "average Δlog10(CFU/ml) (killing)", "setting": "[3]; drug conc 0.5", "result": "0.859 log10(CFU/ml)"}, {"measurement": "average Δlog10(CFU/ml) (killing)", "setting": "[3]; drug conc 2.5", "result": "1.351 log10(CFU/ml)"}, {"measurement": "average Δlog10(CFU/ml) (killing)", "setting": "[3]; drug conc 10", "result": "1.499 log10(CFU/ml)"}, {"measurement": "EC50", "setting": "[1]; [5]", "result": 41, "unit": "nM"}, {"measurement": "OD600 at 6h or 8h after dilution into drug-free medium (regrowth)", "setting": "[4]; S. aureus, drug conc 0.1", "result": 0.489}, {"measurement": "OD600 at 6h or 8h after dilution into drug-free medium (regrowth)", "setting": "[4]; S. aureus, drug conc 0.5", "result": 0.280}, {"measurement": "OD600 at 6h or 8h after dilution into drug-free medium (regrowth)", "setting": "[4]; S. aureus, drug conc 2.5", "result": 0.154}, {"measurement": "OD600 at 6h or 8h after dilution into drug-free medium (regrowth)", "setting": "[4]; S. aureus, drug conc 10", "result": 0.126}, {"measurement": "EC50", "setting": "[4]; DSM2569, S. aureus, regrowth delay of non-growing bacteria, 1:4 CA-MHB pH 7.4, 24 h treatment, OD600 8 h after dilution, read-out: EC50", "result": 205, "unit": "nM"}]}]}
